Assay results from patent EP0120019B1, “PHARMACEUTICAL COMPOSITION HAVING A C[…]” (SCHERING AKTIENGESELLSCHAFT, priority 1982, dated 1983).

Legend:
[1] = test system: Menschliche Leukämiezellen und Lungenkarzinomzellen; experiment: Inhibition of proliferation (growth kinetics by cell count) of tumour cells in culture; format: cell-based; settings: for zytostatische Wirkung (Hemmung der Proliferation in vitro): general statement
[2] = test system: adulte und embryonale Lungenfibroblasten; experiment: Inhibition of proliferation of normal cells under the same culture conditions; format: cell-based; settings: high doses such as 100 ug/ml; same test conditions
Excerpt: Tag durch frisches Medium mit Lisurid ersetzt wurde, wobei sich die Menge des Ergot-Alkaloids auf die freie Base Lisurid bezieht. Die Wachstumskinetik, d.h. die Vermehrungsrate pro Zeiteinheit, wurde durch Bestimmung der Zellzahl nach 48, 96 und 144 Stunden ermittelt und mit der von Zellen verglichen, die in Lisurid-freiem Medium kultiviert wurden.

[3] = Long-term oral treatment of rats (104 - 107 weeks), mortality; format: in vivo, Han-Wistar-Ratten; settings: 0,02, 0,2 and 1,0 mg/kg oral
[4] = test system: Lungenademokarzinomen und Mäuseleukämien; experiment: Long-term oral treatment of mice (104 - 107 weeks), mortality and tumour incidence; format: in vivo, NMRI-Mäuse; settings: 0.02, 0,06 and 0,2 mg/kg oral
Excerpt: Des weiteren wurden NMRI-Mäuse mit 0.02.

[5] = test system: weißen Blutzellen des Menschen; experiment: Accumulation in cells on incubation, detected by fluorescence optics; format: cell-based; settings: incubation with 10^-7 -10-5-molar concentration
Excerpt: Die selektive Wirkung auf Tumore wird auch dadurch unterstützt, daß sich Ergot-Alkaloide wie Lisurid in einzelnen Organen selektiv anreichern und damit hier zu besonders hoher Wirksamkeit gelangen.

CCN(CC)C(=O)N[C@H]1C=C2c3cccc4[nH]c(Br)c(c34)C[C@H]2N(C)C1 [Bromergurid, 1,1-Diethyl-3-(2-brom-6-methyl-9.10-didehydro-8a-ergolinyl)-harnstoff]
zytostatische Wirkung (Hemmung der Proliferation in vitro) [1]: zytostatisch wirken

CCN(CC)C(=O)N[C@H]1C=C2c3cccc4[nH]cc(c34)C[C@H]2N(C)C1 [Lisurid, 1,1-Diethyl-3-(6-methyl-9.10-didelhydro-8a-ergolinyl)-harnstoff]
zytotoxische Wirkung ([1]; 100 ug/ml): zytotoxische Wirkung
Hemmung von Normalzellen [2]: wenn überhaupt nur minimal gehemmt
Sterblichkeit (überwiegend tumorbedingt) [3]: dosisabhängig reduzieren
Auftreten von Lungenademokarzinomen und Mäuseleukämien [4]: deutlichen Hemmung
Mortalität [4]: teilweise zur Verminderung der Mortalität
Anreicherung der Lisuridfluoreszenz [5]: massive Anreicherung

CCCN1CC(NC(=O)N(CC)CC)CC2c3cccc4[nH]cc(c34)CC21 (stereo not drawn) [Protegurid, 1,1-Diethyl-3-(6-u-propyl-8α-ergolinyl)-harnstoff]
zytostatische Wirkung (Hemmung der Proliferation in vitro) [1]: zytostatisch wirken

CCN(CC)C(=O)N[C@H]1C[C@@H]2c3cccc4[nH]cc(c34)C[C@H]2N(C)C1 [Tergurid, 1,1-Diethyl-3-(6-methyl-8a-erfolinyl)-harnstoff]
zytostatische Wirkung (Hemmung der Proliferation in vitro) [1]: zytostatisch wirken
